Where two headings read alike, the source gives them in different places.
Key:
[1] = system: T-cell; assay: IL-2 secretion from T-cells co-stimulated with anti-CD3 and anti-CD28 antibody (Biological Example 2); assay type: cell-based, human; details: Homo sapiens, T-cell, primary human total T-cells
Procedure, shortened: (§1)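 No assay protocol given; T-cells stimulated with anti-CD3 alone or anti-CD3 plus anti-CD28, with or without Cbl-b inhibitor. Activation read as IL-2 secretion or CD25 surface staining, expressed as fold over baseline from uninhibited cells […].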

[2] = system: T-cell; assay: CD25 cell surface staining on T-cells co-stimulated with anti-CD3 and anti-CD28 antibody (Biological Example 2); assay type: cell-based, human; details: Homo sapiens, T-cell, primary human total T-cells
Procedure, shortened: as §1

[3] = molecular target: Cbl-b (Homo sapiens, UniProt Q13191); assay: Cbl-b activity assay (Cbl-b inhibition assay), TR-FRET of Cbl-b interaction with UbcH5B-Ub; assay type: biochemical; details: assay buffer with 100 mM NaCl, 60 nM Src kinase; read-out: Cbl-b activity IC50
Procedure, shortened: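 TR-FRET readout of Cbl-b binding to Bodipy-fluorescein N-terminally labeled Ub conjugated to UbcH5B C85K, measured with compound present. After compound incubation, 60 nM Src kinase with 1 mM ATP and 5 mM MgCl2 (final) was added for 1.5 h, then a further 1 h incubation; asterisked values used 50 mM NaCl buffer and 30 nM Src.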

[4] = system: T-cell; assay: IL-2 secretion from T-cells stimulated with anti-CD3 antibody alone (Biological Example 2); assay type: cell-based; details: primary human total T-cells, read-out: IL-2 secretion, Anti-CD3 stimulation, fold change over baseline; for fold induction at 1 µM: 1 μM compound; for fold induction at 8 µM: 8 μM compound
[5] = system: T-cell; assay: CD25 cell surface staining on T-cells stimulated with anti-CD3 antibody alone (Biological Example 2); assay type: cell-based; details: primary human total T-cells, baseline = anti-CD3/anti-CD28 stimulated cells without inhibitor, read-out: CD25 staining, Anti-CD3 stimulation, fold change over baseline; for fold induction at 1 µM: 1 μM compound; for fold induction at 8 µM: 8 μM compound
[6] = system: primary human NK cells; assay: NK cell activation assessed by cytokine secretion (coculture with K562 NucRed target cells); assay type: cell-based
Description: Peripheral blood mononuclear cells (PBMC) were obtained either: 1) by using Ficoll-Paque™ (GE Healthcare) for separation of peripheral blood hematopoietic cells from buffy coats of healthy human donors; or 2) directly from LeukoPak donations. […] The cells were cultured overnight with IL-2 (60 ng/mL) at 37° C. 5% CO2. Cbl-b inhibitors were added 1 hour prior to stimulation and incubated at 37° C. 5% CO2 at a specific concentration (e.g., 10 μM, 1 μM, or 0.1 μM) with a final DMSO concentration of <0.1%. NK cells were co-cultured with target cells that were engineered to have a red nucleus (K562 NucRed) measurable by flow cytometry. […] The cells were mixed at the indicated ratios (e.g., 5:1, 1:1, or 1:5) of NK (effector cells) to K562 NucRed (target cells) for 6 hours. Cell free supernatants were collected and analyzed for cytokine secretion (e.g. TNFα, IFNγ, or MIP1β) by ELISA or Luminex multiplex kits following the manufacturer's protocol. IFNγ secretion was assessed using an R&D Systems ELISA kit (Catalog #DY285), TNFα secretion was assessed using an R&D Systems ELISA kit (Catalog #DY210), and MIP1β secretion was assessed using an R&D Systems ELISA kit (Catalog #DY271).
Readouts were reported as fold change over baseline. Baseline for this study was the measurement obtained from primary human NK effector cells cocultured with K562 NucRed target cells in the absence of a Cbl-b inhibitor. For NK cells cocultured with K562 NucRed cells, changes greater than 2.0-fold over baseline for cytokine secretion were considered a positive response (Table 10a and 10b).

[7] = system: T-cell; assay: IL-2 secretion from T-cells stimulated with anti-CD3 antibody alone (Biological Example 2); assay type: cell-based, human; details: T-cell, fold change over baseline, primary human total T-cells, read-out: IL-2 secretion Anti-CD3 stimulation; for fold induction at 1 µM: 1 μM Cbl-b inhibitor; for fold induction at 8 µM: 8 μM Cbl-b inhibitor
[8] = system: T-cell; assay: CD25 cell surface staining on T-cells stimulated with anti-CD3 antibody alone (Biological Example 2); assay type: cell-based, human; details: T-cell, fold change over baseline, primary human total T-cells, read-out: CD25 staining Anti-CD3 stimulation; for fold induction at 1 µM: 1 μM Cbl-b inhibitor; for fold induction at 8 µM: 8 μM Cbl-b inhibitor
[9] = molecular target: Cbl-b (residues 36-427) (Homo sapiens, UniProt Q13191); assay: Cbl-b binding assay (SPR, Biacore T200); details: 20° C., 1:1 binding model
Procedure, shortened: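 Affinities derived from global 1:1 steady-state or kinetic fits of double-referenced, solvent-corrected SPR data, 20 °C, NeutrAvidin-capture chip. Compound series (top 100 or 50 μM, 8–10 points) injected 50 s, 90–180 s dissociation. Asterisked values used 50 mM instead of 100 mM NaCl and 30 nM Src kinase.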

[10] = 0.3 μM compound, baseline = anti-CD3/anti-CD28 stimulated cells without inhibitor, read-out: IL-2 secretion, Anti-CD3/Anti-CD28 stimulation, fold change over baseline
[11] = 1 μM compound, baseline = anti-CD3/anti-CD28 stimulated cells without inhibitor, read-out: IL-2 secretion, Anti-CD3/Anti-CD28 stimulation, fold change over baseline
[12] = 4 μM compound, baseline = anti-CD3/anti-CD28 stimulated cells without inhibitor, read-out: IL-2 secretion, Anti-CD3/Anti-CD28 stimulation, fold change over baseline
[13] = 0.3 μM compound, baseline = anti-CD3/anti-CD28 stimulated cells without inhibitor, read-out: CD25 staining, Anti-CD3/Anti-CD28 stimulation, fold change over baseline
[14] = 1 μM compound, baseline = anti-CD3/anti-CD28 stimulated cells without inhibitor, read-out: CD25 staining, Anti-CD3/Anti-CD28 stimulation, fold change over baseline
[15] = 4 μM compound, baseline = anti-CD3/anti-CD28 stimulated cells without inhibitor, read-out: CD25 staining, Anti-CD3/Anti-CD28 stimulation, fold change over baseline
[16] = K562, 1:1 E/T, read-out: IFNγ secretion
[17] = K562, 1:1 E/T, read-out: MIP1β secretion
[18] = K562, 1:1 E/T, read-out: TNFα secretion
[19] = K562, 5:1 E/T, read-out: IFNγ secretion
[20] = K562, 5:1 E/T, read-out: MIP1β secretion
[21] = K562, 5:1 E/T, read-out: TNFα secretion
[22] = fold change over baseline, 0.3 μM Cbl-b inhibitor, read-out: IL-2 secretion Anti-CD3/Anti-CD28 stimulation
[23] = fold change over baseline, 1 μM Cbl-b inhibitor, read-out: IL-2 secretion Anti-CD3/Anti-CD28 stimulation
[24] = fold change over baseline, 4 μM Cbl-b inhibitor, read-out: IL-2 secretion Anti-CD3/Anti-CD28 stimulation
[25] = fold change over baseline, 0.3 μM Cbl-b inhibitor, read-out: CD25 staining Anti-CD3/Anti-CD28 stimulation
[26] = fold change over baseline, 1 μM Cbl-b inhibitor, read-out: CD25 staining Anti-CD3/Anti-CD28 stimulation
[27] = fold change over baseline, 4 μM Cbl-b inhibitor, read-out: CD25 staining Anti-CD3/Anti-CD28 stimulation

Sequence of Cbl-b (residues 36-427) (Q13191 36-427): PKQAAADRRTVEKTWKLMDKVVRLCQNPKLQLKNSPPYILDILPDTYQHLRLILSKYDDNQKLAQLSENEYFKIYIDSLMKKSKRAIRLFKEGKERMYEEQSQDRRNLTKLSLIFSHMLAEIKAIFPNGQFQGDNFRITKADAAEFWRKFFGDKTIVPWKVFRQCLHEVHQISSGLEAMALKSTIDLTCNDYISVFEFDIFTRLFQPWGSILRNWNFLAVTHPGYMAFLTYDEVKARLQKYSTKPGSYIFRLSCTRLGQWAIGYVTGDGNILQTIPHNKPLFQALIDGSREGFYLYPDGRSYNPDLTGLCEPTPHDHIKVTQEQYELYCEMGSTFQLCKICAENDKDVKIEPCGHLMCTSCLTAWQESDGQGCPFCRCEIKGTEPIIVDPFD
Sequence of Cbl-b (Q13191 36-427): as above

SMILES	fold induction at 0.3 µM [1, 10]	fold induction at 1 µM [1, 11]	fold induction at 4 µM [1, 12]	fold induction at 0.3 µM [2, 13]	fold induction at 1 µM [2, 14]	fold induction at 4 µM [2, 15]	IC50 [3] [µM]	fold induction at 1 µM [4]	fold induction at 8 µM [4]	fold induction at 1 µM [5]	fold induction at 8 µM [5]	fold induction at 0.3 µM [1, 22]	fold induction at 1 µM [1, 23]	fold induction at 4 µM [1, 24]	fold induction at 1 µM [7]	fold induction at 8 µM [7]	fold induction at 0.3 µM [2, 25]	fold induction at 1 µM [2, 26]	fold induction at 4 µM [2, 27]	fold induction at 1 µM [8]	also measured
C[C@@H](c1cccc(N2Cc3c(cccc3C(F)(F)F)C2=O)c1)[C@H](F)c1nncn1C (racemic) [Compound 473, 2-(3-((1S,2S and 1R,2R)-1-fluoro-1-(4-methyl-4H-1,2,4-triazol-3-yl)propan-2-yl)phenyl)-4-(trifluoromethyl)isoindolin-1-one]	1.01 to 2.5	1.01 to 2.5	2.51 to 5	1.01 to 1.3	1.01 to 1.3	1.01 to 1.3	0.301 to 1	0.051 to 0.1	0.151 to 0.2	0.601 to 0.8	> 1										
C[C@@H](c1cccc(N2Cc3c(cccc3C(F)(F)F)C2=O)c1)C(F)c1nncn1C (stereo in doubt) [Compound 474, 2-(3-((1S, 2S)-1-fluoro-1-(4-methyl-4H-1,2,4-triazol-3-yl)propan-2-yl)phenyl)-4-(trifluoromethyl)isoindolin-1-one]	1.01 to 2.5	1.01 to 2.5	2.51 to 5	1.01 to 1.3	1.01 to 1.3	1.01 to 1.3		0.051 to 0.1	> 0.201	0.601 to 0.8	> 1										
Cn1cnnc1C(F)[C@](C)(F)c1cccc(N2Cc3c(cccc3C(F)(F)F)C2=O)c1 (stereo in doubt) [Compound 478a, 2-(3-((1S,2R)-1,2-difluoro-1-(4-methyl-4H-1,2,4-triazol-3-yl)propan-2-yl)phenyl)-4-(trifluoromethyl)isoindolin-1-one]	< 1	< 1	< 1	< 1	< 1	1.01 to 1.3	0.301 to 1	< 0.05	0.051 to 0.1	< 0.6	0.601 to 0.8										
C[C@@H](Sc1nncn1C)c1cccc(NC(=O)c2ccc3ccccc3n2)c1 [Compound 9b, (R)-N-(3-(1-((4-methyl-4H-1,2,4-triazol-3-yl)thio)ethyl)phenyl)quinoline-2-carboxamide]																					fold induction at 1 µM [6, 16]: < 1; fold induction at 1 µM [6, 17]: 1.01 to 2; fold induction at 1 µM [6, 18]: < 1; fold induction at 10 µM [6, 16]: < 1; fold induction at 10 µM [6, 17]: < 1; fold induction at 10 µM [6, 18]: < 1; fold induction at 1 µM [6, 19]: < 1; fold induction at 1 µM [6, 20]: < 1; fold induction at 1 µM [6, 21]: < 1; fold induction at 10 µM [6, 19]: < 1; fold induction at 10 µM [6, 20]: < 1; fold induction at 10 µM [6, 21]: < 1
C[C@H](Sc1nncn1C)c1cccc(NC(=O)c2cc3cc(OCc4ccn[nH]4)ccc3cn2)c1 [Compound 307, (S)-6-((1H-pyrazol-5-yl)methoxy)-N-(3-(1-((4-methyl-4H-1,2,4-triazol-3-yl)thio)ethyl)phenyl)isoquinoline-3-carboxamide]							0.1 to 0.3					1.01 to 2.5	1.01 to 2.5	2.51 to 5	0.051 to 0.1	0.101 to 0.15	< 1	< 1	1.01 to 1.3	< 0.6	fold induction at 8 µM [8]: < 0.6; Kd [9]: 0.301 to 1 µM
C[C@H](Cc1nncn1C)c1cccc(NC(=O)c2[nH]nc3c2CCCC3)c1 [Compound 327, (R)-N-(3-(1-(4-Methyl-4H-1,2,4-triazol-3-yl)propan-2-yl)phenyl)-4,5,6,7-tetrahydro-2H-indazole-3-carboxamide]							0.301 to 1					1.01 to 2.5	1.01 to 2.5	1.01 to 2.5	0.051 to 0.1	0.051 to 0.1	1.01 to 1.3	1.01 to 1.3	1.01 to 1.3	0.601 to 0.8	fold induction at 8 µM [8]: 0.801 to 1; Kd [9]: 1 to 3 µM
Cc1ccc(C(=O)Nc2cccc([C@@H](C)Cc3nccn3C)c2)nc1C1CC1 [Compound 331]							0.301 to 1					1.01 to 2.5	1.01 to 2.5	1.01 to 2.5	< 0.05	0.051 to 0.1	< 1	< 1	1.01 to 1.3	< 0.6	fold induction at 8 µM [8]: 0.601 to 0.8; Kd [9]: 1 to 3 µM

— patent US20220324835A1 (Nurix Therapeutics, Inc., priority 2018, published 2022)
